Calls of active or inactive are those of the source. No cut-off for these calls is given here.
What was measured:
[1] = tested on: HeLa; test: Induction of autophagy mediated Halotag-fused EGFP (unknown origin) degradation expressed in human HeLa cells assessed as reduction in EGFP-HT substrate level at 0.01 to 1 uM measured after 24 hrs by fluorescence microscopic analysis; type: cell-based; conditions: dose 0.01-1 µM
[2] = tested on: HeLa; test: Induction of autophagy mediated Halotag-fused EGFP (unknown origin) degradation expressed in human HeLa cells assessed as reduction in EGFP-HT substrate level at 0.1 to 10 uM measured after 24 hrs by fluorescence microscopic analysis; type: cell-based; conditions: dose 0.1-10 µM
[3] = tested on: HeLa; test: Induction of autophagy mediated Rosella/Halotag-fused EGFP (unknown origin) degradation expressed in human HeLa cells assessed as lysosomal degradation of EGFP-HT substrate at 1 uM incubated for 24 hrs by fluorescence microscopic analysis; type: cell-based
[4] = tested on: HeLa; test: Cytotoxicity against human HeLa cells expressing Halotag-fused EGFP assessed as reduction in cell survival rate at 0.001 to 100 uM; type: toxicity, cell-based; conditions: dose 0.001-100 µM
[5] = tested on: HeLa; test: Induction of autophagy mediated Halotag-fused EGFP (unknown origin) degradation expressed in human HeLa cells assessed as reduction in EGFP-HT substrate level at 1 uM incubated for 24 hrs in presence of bafilomycin Al by fluorescence microscopic analysis; type: cell-based
[6] = tested on: MEF; test: Induction of autophagy mediated Halotag-fused EGFP (unknown origin) degradation transiently expressed in Atg5-/- MEF cells assessed as reduction in EGFP-HT substrate level at 1 uM measured after 24 hrs by fluorescence microscopic analysis; type: cell-based
[7] = tested on: HeLa; test: Induction of autophagy mediated Halotag-fused EGFP (unknown origin) degradation expressed in human HeLa cells assessed as reduction in EGFP-HT substrate level at 1 to 10 uM measured after 12 to 24 hrs by fluorescence microscopic analysis; type: cell-based; conditions: dose 1-10 µM, time 12-24 hrs
[8] = tested on: MEF; test: Induction of autophagy mediated Halotag-fused EGFP (unknown origin) degradation transiently expressed in Atg5+/+ MEF cells assessed as reduction in EGFP-HT substrate level at 1 uM measured after 24 hrs by fluorescence microscopic analysis; type: cell-based
[9] = tested on: HeLa; test: Induction of autophagy mediated Halotag-fused EGFP (unknown origin) degradation expressed in human HeLa cells assessed as reduction in EGFP-HT substrate level at <1 uM measured after 24 hrs by fluorescence microscopic analysis; type: cell-based
[10] = tested on: HeLa; test: Induction of autophagy mediated Halotag-fused EGFP (unknown origin) degradation expressed in human HeLa cells assessed as reduction in EGFP-HT substrate level measured after 24 hrs by fluorescence microscopic analysis; type: cell-based; conditions: dose 1-10 µM
[11] = tested on: MEF; test: Induction of EGFP-tagged FKBP12 degradation in p62-/- MEF cells assessed as reduction in FKBP12 level incubated for 48 hrs by immunoblot analysis; type: cell-based; conditions: Mus musculus
[12] = tested on: HeLa; test: Induction of EGFP-tagged FKBP12 degradation in human HeLa cells assessed as reduction in FKBP12 protein level at 0.001 to 10 uM incubated for 48 hrs in presence of bafilomycin Al treated for last 12 hrs by immunoblot analysis; type: cell-based; conditions: dose 0.001-10 µM
[13] = tested on: HeLa; test: Induction of EGFP-tagged FKBP12 degradation in human HeLa cells assessed as reduction in FKBP12 protein level at 1 to 10 uM incubated for 48 hrs in presence of 100 uM 8H-FBnG by immunoblot analysis; type: cell-based; conditions: dose 1-10 µM
[14] = tested on: HeLa; test: Induction of EGFP-tagged FKBP12 degradation in human HeLa cells assessed as protein knockdown at 1 uM incubated for 48 hrs by immunoblot analysis; type: cell-based
[15] = tested on: HeLa; test: Effect on FKBP12 mRNA transcription level in human HeLa cells at 0.1 to 10 uM incubated for 48 hrs by RT-PCR analysis; type: functional, cell-based; conditions: dose 0.1-10 µM
[16] = tested on: MEF; test: Induction of EGFP-tagged FKBP12 degradation in […] MEF cells assessed as reduction in FKBP12 level incubated for 48 hrs by immunoblot analysis; type: cell-based; conditions: Mus musculus

CC(=O)NC(CSc1nc2c(=O)[nH]c(N)nc2n1Cc1ccc(C#N)cc1)C(=O)NCCOCCOCCOCCOCCOCCCCCCCl (single isomer, unassigned)
Activity [1]: inactive

Fc1ccc(Cn2c(-c3cnn(CCOCCOCCOCCOCCOCCCCCCCl)c3)nc3ccccc32)cc1
Activity [2]: inactive

CC(=O)NC(CSc1nc2c(=O)[nH]c(N)nc2n1Cc1ccccc1)C(=O)NCCOCCOCCOCCOCCOCCCCCCCl (single isomer, unassigned)
Activity [1]: inactive

O=c1[nH]cnc2c1nc(-c1cnn(CCOCCOCCOCCOCCOCCCCCCCl)c1)n2Cc1ccc(F)cc1
Activity [2]: inactive

Nc1nc2c(nc(-c3cnn(CCOCCOCCOCCOCCOCCCCCCCl)c3)n2Cc2ccc(F)cc2)c(=O)[nH]1
Activity [3]: Active
Activity [4]: Non-Toxic
Activity [5]: inactive
Activity [1]: Active
Activity [6]: inactive
Activity [7]: Active
Activity [8]: Active
Activity [9]: Active

Nc1nc2c(nc(-c3cccc(OCCOCCOCCOCCOCCOCCCCCCCl)c3)n2Cc2ccc(F)cc2)c(=O)[nH]1
Activity [1]: Active

Cn1c(=O)c2nc(-c3cnn(CCOCCOCCOCCOCCOCCCCCCCl)c3)n(Cc3ccc(F)cc3)c2n(C)c1=O
Activity [2]: inactive

Fc1ccc(Cn2ccnc2-c2cnn(CCOCCOCCOCCOCCOCCCCCCCl)c2)cc1
Activity [2]: inactive

CC(=O)NC(CSc1nc2c(=O)[nH]c(N)nc2n1Cc1ccccc1F)C(=O)NCCOCCOCCOCCOCCOCCCCCCCl (single isomer, unassigned)
Activity [1]: inactive

Nc1nc2c(nc(-c3ccc(OCCOCCOCCOCCOCCOCCCCCCCl)cc3)n2Cc2ccc(F)cc2)c(=O)[nH]1
Activity [1]: Active

CC(=O)NC(CSc1nc2c(=O)[nH]c(N)nc2n1Cc1ccc(Cl)cc1)C(=O)NCCOCCOCCOCCOCCOCCCCCCCl (single isomer, unassigned)
Activity [10]: Dose-Dependent Effect

CC(=O)NC(CSc1nc2c(=O)[nH]c(N)nc2n1Cc1ccc(S(C)(=O)=O)cc1)C(=O)NCCOCCOCCOCCOCCOCCCCCCCl (single isomer, unassigned)
Activity [1]: inactive

COc1ccc(Cn2c(SCC(NC(C)=O)C(=O)NCCOCCOCCOCCOCCOCCCCCCCl)nc3c(=O)[nH]c(N)nc32)cc1 (single isomer, unassigned)
Activity [1]: inactive

CC(=O)NC(CSc1nc2c(=O)[nH]c(N)nc2n1Cc1cccc(F)c1)C(=O)NCCOCCOCCOCCOCCOCCCCCCCl (single isomer, unassigned)
Activity [1]: inactive

Nc1ncnc2c1nc(-c1cnn(CCOCCOCCOCCOCCOCCCCCCCl)c1)n2Cc1ccc(F)cc1
Activity [2]: inactive

CC(=O)NC(CSc1nc2c(=O)[nH]c(N)nc2n1Cc1ccc(C)cc1)C(=O)NCCOCCOCCOCCOCCOCCCCCCCl (single isomer, unassigned)
Activity [1]: inactive

Nc1nc2c(nc(-c3cn(CCOCCOCCOCCOCCOCCCCCCCl)nn3)n2Cc2ccc(F)cc2)c(=O)[nH]1
Activity [1]: Active

CCC(C)(C)C(=O)C(=O)N1CCCC[C@H]1C(=O)O[C@H](CCc1ccc(OC)c(OC)c1)c1cccc(NC(=O)CCC(=O)NCCCOCCOCCOCCCn2cc(-c3nc4c(=O)[nH]c(N)nc4n3Cc3ccc(F)cc3)cn2)c1
Activity [11]: inactive
Activity [12]: inactive
Activity [13]: inactive
Activity [14]: Active
Activity [15]: inactive
Activity [16]: inactive
